This assay addresses T1, PHA-E (Phaseolus vulgaris erythroagglutinin) (Phaseolus vulgaris, UniProt P05088).
T1 construct: purchased Vector Laboratories (Newark, CA, USA)
Type of assay: binding. Particulars: read-out: Kd (Native); pH 6.9.

SMILES strings stand for the structures.

T1 sequence (P05088 22-275 limits assumed): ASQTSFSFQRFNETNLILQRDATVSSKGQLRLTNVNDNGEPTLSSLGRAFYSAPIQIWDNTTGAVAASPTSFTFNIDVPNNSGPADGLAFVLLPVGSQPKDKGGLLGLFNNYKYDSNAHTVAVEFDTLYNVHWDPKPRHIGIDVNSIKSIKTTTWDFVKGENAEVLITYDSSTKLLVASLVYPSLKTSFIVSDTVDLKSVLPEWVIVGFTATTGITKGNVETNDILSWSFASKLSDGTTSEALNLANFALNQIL

Turning to `CC(=O)N[C@H]1[C@H](O[C@H]2[C@H](O)[C@@H](NC(C)=O)C(O)O[C@@H]2CO[C@@H]2O[C@@H](C)[C@@H](O)[C@@H](O)[C@@H]2O)O[C@H](CO)[C@@H](O[C@@H]2O[C@H](CO[C@H]3O[C@H](CO)[C@@H](O)[C@H](O)[C@@H]3O[C@@H]3O[C@H](CO)[C@@H](O[C@@H]4O[C@H](CO)[C@H](O)[C@H](O)[C@H]4O)[C@H](O)[C@H]3NC(C)=O)[C@@H](O)[C@H](O[C@H]3O[C@H](CO)[C@@H](O)[C@H](O)[C@@H]3O[C@@H]3O[C@H](CO)[C@@H](O[C@@H]4O[C@H](CO)[C@H](O)[C@H](O)[C@H]4O)[C@H](O)[C@H]3NC(C)=O)[C@@H]2O)[C@@H]1O` (stereo partly drawn) [HexNAc4Hex5Fuc1], the Kd was 12.3 ± 3.6 µM.
Take `CC(=O)N[C@H]1[C@H](O[C@H]2[C@H](O)[C@@H](NC(C)=O)C(O)O[C@@H]2CO[C@@H]2O[C@@H](C)[C@@H](O)[C@@H](O)[C@@H]2O)O[C@H](CO)[C@@H](O[C@@H]2O[C@H](CO[C@H]3O[C@H](CO)[C@@H](O)[C@H](O)[C@@H]3O[C@@H]3O[C@H](CO)[C@@H](O)[C@H](O)[C@H]3NC(C)=O)[C@@H](O)[C@H](O[C@H]3O[C@H](CO)[C@@H](O)[C@H](O)[C@@H]3O[C@@H]3O[C@H](CO)[C@@H](O)[C@H](O)[C@H]3NC(C)=O)[C@@H]2O)[C@@H]1O` (stereo partly drawn) [HexNAc4Hex3Fuc1]: the Kd was determined as 18.6 ± 3.5 µM.
With `CC(=O)N[C@H]1[C@H](O[C@H]2[C@H](O)[C@@H](NC(C)=O)C(O)O[C@@H]2CO)O[C@H](CO)[C@@H](O[C@@H]2O[C@H](CO[C@H]3O[C@H](CO)[C@@H](O)[C@H](O)[C@@H]3O[C@@H]3O[C@H](CO)[C@@H](O[C@@H]4O[C@H](CO)[C@H](O)[C@H](O)[C@H]4O)[C@H](O)[C@H]3NC(C)=O)[C@@H](O)[C@H](O[C@H]3O[C@H](CO)[C@@H](O)[C@H](O)[C@@H]3O[C@@H]3O[C@H](CO)[C@@H](O[C@@H]4O[C@H](CO)[C@H](O)[C@H](O)[C@H]4O)[C@H](O)[C@H]3NC(C)=O)[C@@H]2O)[C@@H]1O` (stereo partly drawn) [HexNAc4Hex5], the Kd stood at 13.1 ± 0.8 µM.

As a reminder, the Kd is a measure of binding affinity in units of concentration.

For the origin of these results see publication PMC10303200 (ACS Central Science, 2023).
